We go through 20 compounds from patent US9758527B2, “Cyclohexene derivative, preparation method therefor, and pharmaceutical composition for preventing or treating metabolic diseases, containing same as active ingredient” (HYUNDAI PHARM CO., LTD., priority 2014, dated 2017).

The structures appear in SMILES notation. Read-outs that look alike come from different tables or passages of the source.

The target in the assay is T1, G protein-coupled receptor 119 (GPR-119) (Mesocricetus auratus, UniProt A0A1U8CD06).
T1 construct: hamster-derived β-cells containing G protein-coupled receptor 119 (GPR-119), HIT-T15 cells; host or cells: HIT-T15 (hamster pancreatic β-cells)
T1 sequence (A0A1U8CD06 1-334): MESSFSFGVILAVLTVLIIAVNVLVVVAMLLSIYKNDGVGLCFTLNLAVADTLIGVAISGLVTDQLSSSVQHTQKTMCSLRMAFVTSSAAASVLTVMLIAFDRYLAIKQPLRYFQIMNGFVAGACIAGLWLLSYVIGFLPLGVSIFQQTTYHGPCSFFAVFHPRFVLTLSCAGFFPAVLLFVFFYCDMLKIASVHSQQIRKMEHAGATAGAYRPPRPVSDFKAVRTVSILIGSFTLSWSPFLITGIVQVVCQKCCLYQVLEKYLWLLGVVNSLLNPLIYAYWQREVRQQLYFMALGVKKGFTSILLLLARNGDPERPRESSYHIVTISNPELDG
The assay can be described thus: Evaluation of cAMP activity in HIT-T15 cells (HTRF cAMP dynamic kit). The settings on record: cAMP activation. The class given is cell-based, hamster. In a few lines:
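HIT-T15 cells, 60,000/well, treated next day with compound at six concentrations ([…]) for 1 h at 37° C. Lysate cAMP quantified by HTRF competitive immunoassay (D2-cAMP, cryptate anti-cAMP); activity taken as change in FRET signal relative to DMSO.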

[1] abbreviates: 1 h at 37° C., six concentrations, read-out: EC50.

One may read the EC50 as the concentration at which the effect is half-maximal. Turning to `CCc1cnc(N2CCC(COc3ccc(C4=CCC(C(=O)N5CCC[C@H]5C#N)CC4)cc3)CC2)nc1` (stereo partly drawn) [Example 106, (2S)-1-(4-(4-((1-(5-ethylpyrimidin-2-yl)piperidin-4-yl)methoxy)phenyl)cyclohex-3-enecarbonyl)pyrrolidine-2-carbonitrile], the EC50 is, setting by setting: under setting [1], 22 nM; (read-out: EC50 value) ≤ 50 nM.
For `CC(C)(C)OC(=O)N1CCC(COc2ccc(C3=CCC(C(=O)N4CCC[C@H]4C(N)=O)CC3)cc2F)CC1` (stereo partly drawn) [Example 107, tert-butyl 4-((4-(4-((S)-2-carbamoylpyrrolidine-1-carbonyl)cyclohex-1-enyl)-2-fluorophenoxy)methyl)piperidine-1-carboxylate] the same measures were 35 nM and ≤ 50 nM.
As to `CC(C)c1noc(N2CCC(COc3ccc(C4=CCC(C(=O)N5CCC[C@H]5C(N)=O)CC4)cc3F)CC2)n1` (stereo partly drawn) [Example 108, (2S)-1-(4-(3-fluoro-4-((1-(3-isopropyl-1,2,4-oxadiazol-5-yl)piperidin-4-yl)methoxy)phenyl)cyclohex-3-enecarbonyl)pyrrolidine-2-carboxamide], the EC50 under setting [1] is 55 nM.
Still for that read-out and setting: in the case of `COC(=O)CNC(=O)C1CC=C(c2ccc(OCC3CCN(c4nc(C(C)C)no4)CC3)c(F)c2)CC1` (stereo not drawn) [Example 109] it was 190 nM.
Still for that read-out and setting: as for `CCOC(=O)CCNC(=O)C1CC=C(c2ccc(OCC3CCN(c4nc(C(C)C)no4)CC3)c(F)c2)CC1` (stereo not drawn) [Example 110, ethyl 3-(4-(3-fluoro-4-((1-(3-isopropyl-1,2,4-oxadiazol-5-yl)piperidin-4-yl)methoxy)phenyl)cyclohex-3-enecarboxamido)propanoate], the figure is 110 nM; as for `CC(C)c1noc(N2CCC(COc3ccc(C4=CCC(C(=O)NCCC(=O)O)CC4)cc3F)CC2)n1` (stereo not drawn) [Example 111, 3-(4-(3-fluoro-4-((1-(3-isopropyl-1,2,4-oxadiazol-5-yl)piperidin-4-yl)methoxy)phenyl)cyclohex-3-enecarboxamido)propanoic acid], 1500 nM; as for `CC(C)c1noc(N2CCC(COc3ccc(C4=CCC(C(=O)NCC(=O)N5CCOCC5)CC4)cc3F)CC2)n1` (stereo not drawn) [Example 112, 4-(3-fluoro-4-((1-(3-isopropyl-1,2,4-oxadiazol-5-yl)piperidin-4-yl)methoxy)phenyl)-N-(2-morpholino-2-oxoethyl)cyclohex-3-enecarboxamide], 70 nM.
Still for that read-out and setting: in the case of `CC(C)c1noc(N2CCC(COc3ccc(C4=CCC(C(=O)NCCC(=O)N5CCOCC5)CC4)cc3F)CC2)n1` (stereo not drawn) [Example 113, 4-(3-fluoro-4-((1-(3-isopropyl-1,2,4-oxadiazol-5-yl)piperidin-4-yl)methoxy)phenyl)-N-(3-morpholino-3-oxopropyl)cyclohex-3-enecarboxamide] it was 68 nM.
As to `CC(C)(C)OC(=O)N1CCC(COc2ccc(C3=CCC(C(=O)N4CCC[C@H]4C#N)CC3)cc2F)CC1` (stereo partly drawn) [Example 114, tert-butyl 4-((4-(4-((S)-2-cyanopyrrolidine-1-carbonyl)cyclohex-1-enyl)-2-fluorophenoxy)methyl)piperidine-1-carboxylate], the EC50 under setting [1] is 14 nM and the EC50 (read-out: EC50 value) was ≤ 50 nM.
The like results for `CC(C)c1noc(N2CCC(COc3ccc(C4=CCC(C(=O)N5CCC[C@H]5C#N)CC4)cc3F)CC2)n1` (stereo partly drawn) [Example 115, (2S)-1-(4-(3-fluoro-4-((1-(3-isopropyl-1,2,4-oxadiazol-5-yl)piperidin-4-yl)methoxy)phenyl)cyclohex-3-enecarbonyl)pyrrolidine-2-carbonitrile] were, in that order, 15 nM and ≤ 50 nM.
The like results for `CC(C)c1noc(N2CCC(COc3ccc(C4=CCC(C(=O)N5CCC[C@@H]5C(N)=O)CC4)cc3F)CC2)n1` (stereo partly drawn) [Example 116, (2R)-1-(4-(3-fluoro-4-((1-(3-isopropyl-1,2,4-oxadiazol-5-yl)piperidin-4-yl)methoxy)phenyl)cyclohex-3-enecarbonyl)pyrrolidine-2-carboxamide] were, in that order, 28 nM and ≤ 50 nM.
For `CC(C)c1noc(N2CCC(COc3ccc(C4=CCC(C(=O)N5CCC[C@@H]5C#N)CC4)cc3F)CC2)n1` (stereo partly drawn) [Example 117, (2R)-1-(4-(3-fluoro-4-((1-(3-isopropyl-1,2,4-oxadiazol-5-yl)piperidin-4-yl)methoxy)phenyl)cyclohex-3-enecarbonyl)pyrrolidine-2-carbonitrile] the same measures were 11 nM and ≤ 50 nM.
Consider `CC(C)c1noc(N2CCC(COc3ccc(C4=CCC(C(=O)NCCO)CC4)cc3F)CC2)n1` (stereo not drawn) [Example 120, 4-(3-fluoro-4-((1-(3-isopropyl-1,2,4-oxadiazol-5-yl)piperidin-4-yl)methoxy)phenyl)-N-(2-hydroxyethyl)cyclohex-3-enecarboxamide], for which, under setting [1], the EC50 was 80 nM.
On to `CC(C)c1noc(N2CCC(COc3ccc(C4=CCC(C(=O)NCC(=O)N5CCC[C@@H]5C(N)=O)CC4)cc3F)CC2)n1` (stereo partly drawn) [Example 121, (2R)-1-(2-(4-(3-fluoro-4-((1-(3-isopropyl-1,2,4-oxadiazol-5-yl)piperidin-4-yl)methoxy)phenyl)cyclohex-3-enecarboxamido)acetyl)pyrrolidine-2-carboxamide], for which the EC50 under setting [1] was 500 nM.
The same measure, in the same setting: in the case of `CC(C)c1noc(N2CCC(COc3ccc(C4=CCC(C(=O)NCC(=O)N5CCC[C@@H]5C#N)CC4)cc3F)CC2)n1` (stereo partly drawn) [Example 122, N-(2-((R)-2-cyanopyrrolidin-1-yl)-2-oxoethyl)-4-(3-fluoro-4-((1-(3-isopropyl-1,2,4-oxadiazol-5-yl)piperidin-4-yl)methoxy)phenyl)cyclohex-3-enecarboxamide] it was 130 nM.
In the case of `CCc1cnc(N2CCC(COc3ccc(C4=CCC(C(=O)N5CCN(C6CC6)CC5)CC4)cc3)CC2)nc1` (stereo not drawn) [Example 123, (4-cyclopropylpiperazin-1-yl)(4-(4-((1-(5-ethylpyrimidin-2-yl)piperidin-4-yl)methoxy)phenyl)cyclohex-3-enyl)methanone], the EC50 under setting [1] worked out at 35 nM and the EC50 (read-out: EC50 value) is ≤ 50 nM.
With `CCc1cnc(N2CCC(COc3ccc(C4=CCC(C(=O)N5CCN(CC6CC6)CC5)CC4)cc3)CC2)nc1` (stereo not drawn) [Example 124, (4-(cyclopropylmethyl)piperazin-1-yl)(4-(4-((1-(5-ethylpyrimidin-2-yl)piperidin-4-yl)methoxy)phenyl)cyclohex-3-enyl)methanone], the EC50 under setting [1] worked out at 100 nM.
On the same count and under the same terms, as for `C[C@H](O)CNC(=O)C1CC=C(c2ccc(OCC3CCN(C(=O)OC(C)(C)C)CC3)cc2F)CC1` (stereo partly drawn) [Example 125, tert-butyl 4-((3-fluoro-4-(4-((S)-2-hydroxypropylcarbamoyl)cyclohex-1-enyl)phenoxy)methyl)piperidine-1-carboxylate], the figure is 70 nM; as for `C[C@@H](O)CNC(=O)C1CC=C(c2ccc(OCC3CCN(C(=O)OC(C)(C)C)CC3)cc2F)CC1` (stereo partly drawn) [Example 126, tert-butyl 4-((3-fluoro-4-(4-((R)-2-hydroxypropylcarbamoyl)cyclohex-1-enyl)phenoxy)methyl)piperidine-1-carboxylate], 130 nM; as for `CCc1cnc(N2CCC(COc3ccc(C4=CCC(C(=O)N[C@@H](C)CO)CC4)cc3)CC2)nc1` (stereo partly drawn) [Example 127, 4-(4-((1-(5-ethylpyrimidin-2-yl)piperidin-4-yl)methoxy)phenyl)-N-((S)-1-hydroxypropan-2-yl)cyclohex-3-enecarboxamide], 83 nM.
